According to patent US12453716B2, “Small molecule antagonist to PACAP receptor and uses thereof” (University of Vermont and State Agricultural College, priority 2019, dated 2025):

Assays:
PAC1 receptor [1] = molecular target: T1, PAC1 receptor (Homo sapiens, UniProt P41586); assay: PACAP-stimulated PAC1-EGFP receptor internalization in stable HEK cell line; format: cell-based
T1 construct: expressed in transfected cells
T1 sequence (P41586 21-468): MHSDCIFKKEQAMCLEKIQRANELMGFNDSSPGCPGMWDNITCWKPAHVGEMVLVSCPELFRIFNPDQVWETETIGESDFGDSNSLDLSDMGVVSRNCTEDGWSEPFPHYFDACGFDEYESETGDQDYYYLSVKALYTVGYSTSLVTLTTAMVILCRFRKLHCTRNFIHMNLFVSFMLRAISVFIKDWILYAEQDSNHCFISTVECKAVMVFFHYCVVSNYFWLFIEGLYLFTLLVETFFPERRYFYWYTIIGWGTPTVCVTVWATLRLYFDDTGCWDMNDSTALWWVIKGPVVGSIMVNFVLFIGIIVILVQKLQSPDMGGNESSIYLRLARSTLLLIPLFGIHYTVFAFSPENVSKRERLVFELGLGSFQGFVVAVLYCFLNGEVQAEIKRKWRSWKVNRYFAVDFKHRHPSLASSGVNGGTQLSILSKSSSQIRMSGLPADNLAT
Procedure: (§1) Compound I-1 blocks PAC1 receptor internalization and calcium signaling. […] Upon 25 nM PACAP application (15 min), the tagged receptor is internalized into intracellular endosomes for ERK signaling (PACAP, middle panel). However, pretreatment of the culture (15 min) with 10-25 μM I-1 blocked PACAP-stimulated receptor internalization (PACAP+I-1); the PAC1-EGFP receptors remained on the cell surface. In FIG. 2, using the same HEK PAC1-EGFP cell line, PACAP rapidly stimulated calcium signaling in Fura-2 assays. The response was blocked approximately 50% with 2.5 μM compound I-1, and was abolished with 25 μM I-1.

PAC1 receptor [2] = molecular target: T1, PAC1 receptor; assay: PACAP-stimulated calcium signaling, Fura-2 assay in HEK PAC1-EGFP cell line; format: cell-based; settings: for PAC1 receptor-mediated calcium flux: concentration not given
Procedure: as §1
The PAC1-EGFP HEK cell lines were preloaded with Fura-2 for calcium imaging. PACAP alone produced robust calcium signals.

PAC1 receptor [3] = molecular target: T1, PAC1 receptor; assay: PACAP-stimulated ERK phosphorylation/activation in HEK PAC1-EGFP receptor cell line; format: cell-based; settings: for PAC1 receptor endosomal/ligand-mediated ERK activation: concentration not given
Procedure: In FIG. 3, using the stably expressing HEK PAC1-EGFP receptor cell line, compound I-1 blocks 25 nM PACAP-stimulated ERK phosphorylation and activation (p42 and p44 ERK bands) in a dose-dependent manner. […] In similar assays, the other compounds (I-2 to I-26) can block PACAP-stimulated ERK signaling with an apparent IC50 of 25 μM.
In FIG. 5, the compound I-20 acts as a glucagon receptor (GCGR) antagonist by binding to an extra-helical allosteric site on the receptor. […] In FIG. 6, the addition of compound I-20 can increase the efficacy and potency of […] inhibiting PACAP-stimulated ERK activation.
In FIG. 7, all samples were pretreated with 25 μM acyl hydrazide before 25 nM PACAP application. Glucagon antagonist is I-20. Data normalized to total cellular ERK not shown.

male rats = assay: Open field test after BNST infusion, PACAP-induced anxiety-related behavior; format: in vivo, rat; settings: FIG. 8
Text: Compound I-1 blocks PACAP-induced anxiety-related behavior. In FIG. 8, male rats were cannulated bilaterally into the BNST. […] PACAP infusions into the BNST produced stress/anxiety-like responses as reflected by decreased center field times (duration in seconds). […] In the right panel, the open field entry data was not affected by changes in animal locomotion. Asterisk, statistically different from other groups. Note: I-1+PACAP returned open field times to untreated control levels.

O=C(N/N=C/c1cccc2c1ccn2Cc1cccc(C(F)(F)F)c1)c1ccc(O)c(Cl)c1 [Compound I-21, reference compound]
PAC1 receptor internalization (PAC1 receptor [1]; concentration not given): modest effects
PAC1 receptor-mediated calcium flux (PAC1 receptor [2]): attenuate
PAC1 receptor endosomal/ligand-mediated ERK activation (PAC1 receptor [3]): modest effects

Cc1cc(C)c(C)c(Cn2ccc3c(/C=N/NC(=O)c4ccc(O)c(Cl)c4)cccc32)c1C [Compound I-19, (E)-3-chloro-4-hydroxy-N′-((1-(2,3,5,6-tetramethylbenzyl)-1H-indol-4-yl)methylene)benzohydrazide]
PAC1 receptor-mediated calcium flux (PAC1 receptor [2]): completely blocking
PAC1 receptor endosomal/ligand-mediated ERK activation (PAC1 receptor [3]): without apparent effects

O=C(N/N=C/c1cccc2c1ccn2Cc1cc(F)cc(F)c1)c1ccc(O)c(Cl)c1 [Compound I-1, (E)-3-chloro-N′-((1-(3,5-difluorobenzyl)-1H-indol-4-yl)methylene)-4-hydroxybenzohydrazide]
PACAP-stimulated receptor internalization (PAC1 receptor [1]; 15 min pretreatment with 10-25 μM compound, 25 nM PACAP, 15 min, FIG. 1): blocked
PACAP-stimulated calcium signal blocked (PAC1 receptor [2]; 2.5 μM compound): approximately 50%
PACAP-stimulated calcium signal/flux (PAC1 receptor [2]; 25 μM compound): abolished
PACAP-stimulated ERK activation (PAC1 receptor [3]; 25 μM compound, 25 nM PACAP, FIG. 3): near control levels
IC50 (PAC1 receptor [3]; normalized to total ERK levels, approximate/apparent, FIG. 4, read-out: IC50 in inhibiting PACAP-stimulated ERK activation): 8 to 10 µM
Open field center field time, compound alone compared to control (male rats; 5-10 μM infusion into the BNST, no PACAP): no apparent effects
PACAP-induced stress/anxiety responses (open field center field time) (male rats; BNST preinjection of compound before PACAP infusion): completely blocked

COc1ccc2cc(-c3cc(-c4cc(Cl)cc(Cl)c4)nn3C(C)c3ccc(C(=O)NCCC(=O)O)cc3)ccc2c1 (stereo not drawn) [Compound I-20]
ERK activation attenuated (PAC1 receptor [3]; 25 μM compound, FIG. 5): approximately 50%
Antagonism at the PAC1-receptor compared to I-1 (PAC1 receptor [3]; FIG. 5): weak antagonist
PACAP-stimulated ERK activation, combination (PAC1 receptor [3]; I-20 together with 10 μM I-1, FIG. 6): basal or near-basal levels
